{"source": "paper PMC6277767", "about": "“Broad and Region-Specific Impacts of the Synthetic Cannabinoid CP 55,940 in Adolescent and Adult Female Mouse Brains” (Frontiers in Molecular Neuroscience, 2018)", "system": "CD1 female mouse brain lipidome", "test": "Brain-region lipid levels (HPLC/MS/MS lipidomics) 2 h after single i.p. 3 mg/kg CP 55,940 vs vehicle", "assay_type": "in vivo", "settings": "brainstem", "procedure": "The Bloomington Institutional Animal Care and Use Committee of Indiana University reviewed and approved the animal procedures. Female mice from the CD1 strain were utilized to match our study examining THC’s effects on the brain lipidome ([Leishman et al., 2018]). Mice were given a single i.p. injection of either 3 mg/kg CP or 1:1:18 cremophor:ethanol:saline vehicle (please refer to the section “3 mg/kg CP Is Relevant for Synthetic Cannabinoid Abuse and Has Stronger Effects on the Female Mouse Brain Lipidome During Adolescence” for a justification of dose and use of female mice). Three different age groups were given injections: PND 35 and PND 50 adolescents, and adult mice (PND 113). At least eight mice in each age group received CP and at least eight received vehicle. Matching the THC study time course ([Leishman et al., 2018]), mice were sacrificed via rapid decapitation 2 h after injection. Brains were immediately removed and flash-frozen in liquid nitrogen, and then stored at -80°C until dissections were performed. Brains were dissected on an ice-cold dissection plate into the following regions: STR, HIPP, CER, THAL, CTX, HYP, MID, and STEM. These abbreviations for these brain areas will be used exclusively when discussing the results generated by these specific dissections. Each dissected area was immediately placed in liquid nitrogen and then stored at -80°C until used for lipid extraction.\nTissue extracts were performed as previously described ([Bradshaw et al., 2006]; [Stuart et al., 2013]; [Raboune et al., 2014]; [Leishman et al., 2016a],[b], [2017], [2018]). First, samples were shock frozen in liquid nitrogen, weighed, and transferred to a centrifuge tube. The mass of the largest sample was multiplied by 50 to determine how many milliliters of HPLC-grade methanol (Fisher, Fair Lawn, NJ, United States) to add. Then, samples were spiked with 500 pmol deuterium-labeled NAGly (d8NAGly; Cayman Chemical, Ann Arbor, MI, United States). Samples were placed on ice in darkness for 2 h then individually homogenized and centrifuged at 19,000 × g for 20 min at 20°C. Supernatants were diluted with HPLC water (purified in house) to make a solution of 75% water, 25% supernatant. Lipids were partially purified on C18 solid phase extraction columns (Agilent, Palo Alto, CA, United States). A series of four elutions with 1.5 mL of 60%, 75%, 85%, and 100% methanol were collected ([Stuart et al., 2013]; [Leishman et al., 2016a],[b], [2018]).\nAs previously described ([Bradshaw et al., 2006]; [Tan et al., 2006]; [Smoum et al., 2010]; [Stuart et al., 2013]; [Tortoriello et al., 2013]; [Raboune et al., 2014]; [Leishman et al., 2016a],[b], [2017], [2018]), samples were analyzed using an Applied Biosystems API 3000 triple quadrupole mass spectrometer with electrospray ionization (Foster City, CA, United States). Using an Agilent XDB-C18 reversed phase analytical column and optimized mobile phase gradients, 20 μL from each elution were chromatographed. Two Shimadzu 10ADvp pumps (Columbia, MD, United States) provided the pressure for gradient elution. Mobile phase A: 20% methanol, 80% water (v/v) and 1 mM ammonium acetate (Sigma, St. Louis, MO, United States). Mobile phase B: 100% methanol, 1 mM ammonium acetate. Every method run began with 0% mobile phase B, reached 100% mobile phase B flowing at 0.2 mL/min, and gradually returned to 0% mobile phase B.\nThis screening library will be referred to as the lipidome when discussing data from this study. HPLC/MS/MS data were analyzed using Analyst software (Applied Biosystems) ([Bradshaw et al., 2006]; [Tan et al., 2006]; [Stuart et al., 2013]; [Tortoriello et al., 2013]; [Raboune et al., 2014]; [Leishman et al., 2016a],[b], [2017], [2018]). Chromatograms (Supplementary Figure 3) were generated by determining the retention time of analytes from the analytical column with a [M-1] or [M+1] parent peak and a fragmentation peak corresponding to the programmed values. […]", "key": {"[1]": {"settings": "PND 50, 3 mg/kg CP 55,940, one-way ANOVA p .000"}, "[2]": {"settings": "PND 50, 3 mg/kg CP 55,940, one-way ANOVA p .001"}, "[3]": {"settings": "PND 50, 3 mg/kg CP 55,940, one-way ANOVA p .002"}, "[4]": {"settings": "PND 50, 3 mg/kg CP 55,940, one-way ANOVA p .003"}, "[5]": {"settings": "PND 50, 3 mg/kg CP 55,940, one-way ANOVA p .006"}, "[6]": {"settings": "PND 50, 3 mg/kg CP 55,940, one-way ANOVA p .007"}, "[7]": {"settings": "PND 50, 3 mg/kg CP 55,940, one-way ANOVA p .008"}, "[8]": {"settings": "PND 50, 3 mg/kg CP 55,940, one-way ANOVA p .014"}, "[9]": {"settings": "PND 50, 3 mg/kg CP 55,940, one-way ANOVA p .015"}, "[10]": {"settings": "PND 50, 3 mg/kg CP 55,940, one-way ANOVA p .018"}, "[11]": {"settings": "PND 50, 3 mg/kg CP 55,940, one-way ANOVA p .023"}, "[12]": {"settings": "PND 50, 3 mg/kg CP 55,940, one-way ANOVA p .041"}, "[13]": {"settings": "PND 50, 3 mg/kg CP 55,940, one-way ANOVA p .043"}}}
{"molecule": "CCCCCCC(C)(C)c1ccc([C@@H]2C[C@H](O)CC[C@H]2CCCO)c(O)c1", "note": "[CP 55,940]", "values": [{"measurement": "N-palmitoyl methionine level, Mean", "setting": "PND 50, 3 mg/kg CP 55,940", "result": "7.37E-13"}, {"measurement": "N-palmitoyl phenylalanine level, Mean", "setting": "PND 50, 3 mg/kg CP 55,940", "result": "1.09E-12"}, {"measurement": "N-palmitoyl proline level, Mean", "setting": "PND 50, 3 mg/kg CP 55,940", "result": "BDL"}, {"measurement": "N-palmitoyl serine level, Mean", "setting": "PND 50, 3 mg/kg CP 55,940", "result": "2E-11"}, {"measurement": "N-palmitoyl tryptophan level, Mean", "setting": "PND 50, 3 mg/kg CP 55,940", "result": "BDL"}, {"measurement": "N-palmitoyl tyrosine level, Mean", "setting": "PND 50, 3 mg/kg CP 55,940", "result": "5.77E-13"}, {"measurement": "N-palmitoyl valine level, Mean", "setting": "PND 50, 3 mg/kg CP 55,940", "result": "1.73E-13"}, {"measurement": "N-stearoyl GABA level, Mean", "setting": "PND 50, 3 mg/kg CP 55,940", "result": "7.1E-12"}, {"measurement": "N-stearoyl alanine level, Mean", "setting": "PND 50, 3 mg/kg CP 55,940", "result": "1.5E-12"}, {"measurement": "N-stearoyl ethanolamine level, Mean", "setting": "PND 50, 3 mg/kg CP 55,940", "result": "2.63E-11"}, {"measurement": "N-stearoyl glycine level, Mean", "setting": "PND 50, 3 mg/kg CP 55,940", "result": "4.43E-12"}, {"measurement": "N-stearoyl leucine level, Mean", "setting": "PND 50, 3 mg/kg CP 55,940", "result": "7.24E-13"}, {"measurement": "N-stearoyl methionine level, Mean", "setting": "PND 50, 3 mg/kg CP 55,940", "result": "8.45E-13"}, {"measurement": "N-stearoyl phenylalanine level, Mean", "setting": "PND 50, 3 mg/kg CP 55,940", "result": "9.56E-13"}, {"measurement": "N-stearoyl proline level, Mean", "setting": "PND 50, 3 mg/kg CP 55,940", "result": "BDL"}, {"measurement": "N-stearoyl serine level, Mean", "setting": "PND 50, 3 mg/kg CP 55,940", "result": "3.14E-11"}, {"measurement": "N-stearoyl tryptophan level, Mean", "setting": "PND 50, 3 mg/kg CP 55,940", "result": "BDL"}, {"measurement": "N-stearoyl tyrosine level, Mean", "setting": "PND 50, 3 mg/kg CP 55,940", "result": "7.69E-14"}, {"measurement": "Oleic acid level, Mean", "setting": "PND 50, 3 mg/kg CP 55,940", "result": "1.94E-10"}, {"measurement": "PGE2 level, Mean", "setting": "PND 50, 3 mg/kg CP 55,940", "result": "1.11E-10"}, {"measurement": "PhosphoLEA level, Mean", "setting": "PND 50, 3 mg/kg CP 55,940", "result": "7.34E-13"}, {"measurement": "THC level, Mean", "setting": "PND 50, 3 mg/kg CP 55,940", "result": "BDL"}, {"measurement": "N-arachidonoyl GABA Direction (relative to Veh)", "setting": "[1]", "result": "↓"}, {"measurement": "N-arachidonoyl GABA Magnitude (x Veh level)", "setting": "[1]", "result": 0.68, "unit": "x Veh level"}, {"measurement": "PGF2α Direction (relative to Veh)", "setting": "[1]", "result": "↓"}, {"measurement": "PGF2α Magnitude (x Veh level)", "setting": "[1]", "result": 0.74, "unit": "x Veh level"}, {"measurement": "N-palmitoyl leucine, Direction (relative to Veh)", "setting": "[2]", "result": "↑"}, {"measurement": "N-palmitoyl leucine, Magnitude (x Veh level)", "setting": "[2]", "result": 1.44, "unit": "x Veh level"}, {"measurement": "6-ketoPGF1α Direction (relative to Veh)", "setting": "[3]", "result": "↓"}, {"measurement": "6-ketoPGF1α Magnitude (x Veh level)", "setting": "[3]", "result": 0.70, "unit": "x Veh level"}, {"measurement": "N-arachidonoyl taurine Direction (relative to Veh)", "setting": "[4]", "result": "↓"}, {"measurement": "N-arachidonoyl taurine Magnitude (x Veh level)", "setting": "[4]", "result": 0.83, "unit": "x Veh level"}, {"measurement": "N-palmitoyl tyrosine Magnitude (x Veh level)", "setting": "[5]", "result": 1.23, "unit": "x Veh level"}, {"measurement": "N-palmitoyl tyrosine, Direction (relative to Veh)", "setting": "[5]", "result": "↑"}, {"measurement": "N-arachidonoyl tyrosine, Direction (relative to Veh)", "setting": "[6]", "result": "↓"}, {"measurement": "N-arachidonoyl tyrosine, Magnitude (x Veh level)", "setting": "[6]", "result": 0.74, "unit": "x Veh level"}, {"measurement": "N-arachidonoyl serine Direction (relative to Veh)", "setting": "[7]", "result": "↓"}, {"measurement": "N-arachidonoyl serine Magnitude (x Veh level)", "setting": "[7]", "result": 0.80, "unit": "x Veh level"}, {"measurement": "PGE2 Direction (relative to Veh)", "setting": "[8]", "result": "↓"}, {"measurement": "PGE2 Magnitude (x Veh level)", "setting": "[8]", "result": 0.73, "unit": "x Veh level"}, {"measurement": "2-linoleoyl glycerol Direction (relative to Veh)", "setting": "[9]", "result": "↓"}, {"measurement": "2-linoleoyl glycerol Magnitude (x Veh level)", "setting": "[9]", "result": 0.74, "unit": "x Veh level"}, {"measurement": "Oleic acid, Direction (relative to Veh)", "setting": "[10]", "result": "↓"}, {"measurement": "Oleic acid, Magnitude (x Veh level)", "setting": "[10]", "result": 0.84, "unit": "x Veh level"}, {"measurement": "N-arachidonoyl phenylalanine, Direction (relative to Veh)", "setting": "[11]", "result": "↑"}, {"measurement": "N-arachidonoyl phenylalanine, Magnitude (x Veh level)", "setting": "[11]", "result": 1.40, "unit": "x Veh level"}, {"measurement": "N-oleoyl methionine, Direction (relative to Veh)", "setting": "[12]", "result": "↓"}, {"measurement": "N-oleoyl methionine, Magnitude (x Veh level)", "setting": "[12]", "result": 0.68, "unit": "x Veh level"}, {"measurement": "Linoleic acid, Direction (relative to Veh)", "setting": "[13]", "result": "↓"}, {"measurement": "Linoleic acid, Magnitude (x Veh level)", "setting": "[13]", "result": 0.81, "unit": "x Veh level"}, {"measurement": "2-oleoyl glycerol, Direction (relative to Veh)", "setting": "PND 50, 3 mg/kg CP 55,940, one-way ANOVA p .046", "result": "↓"}]}
